“Also recorded” adds a separate entry of the source.
What was measured:
Format in all cases: cell-based, human
PBMC [1] = experiment: PBMC pretreated with IL-1ra before stimulation with PTG or β-glucan
Experimental: Considering the essential role for IL-1β in the IL-23/TH17 innate response in purified monocytes, we predicted that IL-1β regulates the cytokine profile triggered by PTG and β-glucan in whole PBMC as well. To this end, PBMC were pretreated with IL-1ra for 1 h prior to stimulation with PTG or β-glucan, or incubated with 5 ng/ml IL-1β alone for 20 h.
(§1) PBMC cultures. PBMC from CD patients and HLA-DQ2^+ healthy controls was tested as follows. 10^6 PBMC/ml were incubated in RPMI-1640 supplemented with 10% heat inactivated hAB, 1% L-glutamine, 1% Pen-Strep and 20 mM Hepes Buffer (cRPMI) with and without PTG, β-glucan, 5 ng/ml rhIL-1β, or 10 μg/ml pooled synthetic 20 mers of α-gliadin in 96 well U-bottom plates (Denville Scientific Inc.) at 37° C. in 5% CO2 for 6, 24, 48, or 72 h. Alternatively, 10^6 PBMC/ml were incubated with 0.5 μg/ml rhIL-1ra at 37° C. in 5% CO2 for 1 h then cultured with and without 100 μg/ml PTG or 500 μg/ml β-glucan for an additional 20 h. Cell-free culture supernatants were harvested for cytokine and chemokine analysis.
(§2) Cytokine & chemokine analysis. Cell-free culture supernatants were analyzed for IL-1β, IL-1ra, IL-6, IL-12p70, IFNγ, TNFα (Bio-Plex Cytokine Assay kit, Bio-Rad) or IL-1β, IL-23 (ELISA kit, eBiosciences), IL-1ra and CCL20 (Quantikine ELISA kit, R & D Systems) following the manufacturers' protocols. Appropriate standard curves were included in each assay.

monocytes [2] = experiment: Purified monocytes pretreated with IL-1ra before PTG or β-glucan
Experimental: To better understand the contribution of IL-1 signaling in the IL-23/TH17 innate response to PTG in monocyte and immDC populations, we pretreated monocytes, immDC and IFNγ-treated immDC with the naturally occurring anti-inflammatory IL-1 receptor antagonist (IL-1ra) for 1 h prior to stimulation with PTG or β-glucan as a positive control, or incubated with increasing doses of exogenous IL-1β for 20 h. […] Contradictory to the monocyte response, addition of IL-1ra or IL-1β to IFNγ-treated immDC had no effect on the IL-23/TH17 profile induced by PTG exposure (FIG. 3D), providing further indication that monocytes exposed to gluten and not their progeny DC have the potential to activate autoreactive memory TH17 cells. Indeed, other groups have reported in human studies that activated monocytes, which produce IL-1β and IL-23, are the best inducers of TH17 cells (Evans et al., Proc. Natl. Acad. Sci., U.S.A., 104(43):17034-17039 (2007)).
(§3) Elutriated monocyte cultures. 5×10^5 monocytes/ml were cultured in cRPMI with and without 100 μg/ml PTG, 100 μg/ml β-glucan, or 0.5-50 ng/ml rhIL-1β in 96 well U-bottom plates at 37° C. in 5% CO2 for 20 h. Alternatively, 5×10^5 monocytes/ml were incubated with 0.5 μg/ml rhIL-1ra at 37° C. in 5% CO2 for 1 h then cultured with and without 100 μg/ml PTG or β-glucan for an additional 20 h. Cell-free culture supernatants were harvested for cytokine and chemokine analysis.
as §2

IFNγ-treated immDC = IFNγ-treated immDC exposed to PTG with or without IL-1ra or IL-1β; details: addition to IFNγ-treated immDC
Experimental: IL-23 is only secreted by activated APC such as monocytes, macrophages and DC, which reduces the number of possible cell sources considerably. To determine which of these cell populations was the source of IL-23 in response to PTG, purified lymphocytes, monocytes, or monocyte-derived DC cultured with GM-CSF and IL-4, were incubated in the presence or absence of PTG for 24 h, at which time supernatants were collected for IL-23, IL-1β, IL-6, IFNγ and TNFα analysis. […] Since neither PTG nor β-glucan activated cytokine production in DC differed from monocytes, we examined the response after pretreatment with IFNγ, given that this treatment has been necessary for the IL-23 response to a variety of agents including β-glucan. immDC were cultured in the presence or absence of IFNγ for 18 h prior to addition of PTG, after which supernatants were subjected to cytokine analysis as described above. […] Moreover, these findings provide insight to the mechanisms in which IFNγ counteracts IL-1 dependent TH17 responses. […]

PBMC [3] = experiment: PBMC cultures with PTG, β-glucan, IL-1β or α-gliadin peptides; cytokine/chemokine analysis of supernatants
Experimental: We cultured PBMC from HLA-DQ2 positive and HLA-DQ2 negative healthy persons in the presence or absence of 100 ug/ml of PTG or β-D-glucan from barley as a positive control for 20 h. Cell-free culture supernatants were harvested and analyzed for proinflammatory cytokines IL-1β, IL-6, IFNγ, TNFα (Luminex) IL-23 and the TH17 chemokine CCL20/MIP-3α (ELISA).
as §1, §2

monocytes [4] = experiment: Purified lymphocytes, monocytes or monocyte-derived DC with PTG, β-glucan or IL-1β
Experimental: IL-23 is only secreted by activated APC such as monocytes, macrophages and DC, which reduces the number of possible cell sources considerably. To determine which of these cell populations was the source of IL-23 in response to PTG, purified lymphocytes, monocytes, or monocyte-derived DC cultured with GM-CSF and IL-4, were incubated in the presence or absence of PTG for 24 h, at which time supernatants were collected for IL-23, IL-1β, IL-6, IFNγ and TNFα analysis. […] Since neither PTG nor β-glucan activated cytokine production in DC differed from monocytes, we examined the response after pretreatment with IFNγ, given that this treatment has been necessary for the IL-23 response to a variety of agents including β-glucan. immDC were cultured in the presence or absence of IFNγ for 18 h prior to addition of PTG, after which supernatants were subjected to cytokine analysis as described above. […] Moreover, these findings provide insight to the mechanisms in which IFNγ counteracts IL-1 dependent TH17 responses.
While IL-1β is produced by many cell types, IL-23 production is thought to be restricted to activated APC. […] To investigate this hypothesis, we exposed purified lymphocytes, monocytes, or monocyte-derived DC (cultured with GM-CSF and IL-4 for 72 h) to PTG overnight and analyzed the cell-free culture supernatants for IL-23 and related “Th17” polarizing mediators.
as §3, with “Cell-free culture supernatants were harvested for cytokine and chemokine analysis.” left out
as §2, with “Appropriate standard curves were included in each assay.” left out

[5] = monocytes, IL-1ra 1 h prior to stimulation
[6] = PBMC, 5 ng/ml IL-1β alone, 20 h

Row | Substance | IL-23 and IL-1β responses to PTG and β-glucan (PBMC [1]; 0.5 μg/ml IL-1ra 1 h prior, stimulation 20 h, mean of 10 experiments) | induction of IL-23 in response to PTG and β-glucan (PBMC [1]; PBMC from CD patients) | levels of IL-1β in PBMC treated with PTG or β-glucan (PBMC [1]; PBMC from CD patients) | IL-23, TNF-α, IL-6 and CCL20 responses to PTG and β-glucan (PBMC [1]; PBMC from healthy individuals, IL-1ra 1 h prior to stimulation, 20 h) | reduction of the IL-1β response (PBMC [1]; PBMC, IL-1ra 1 h prior to PTG or β-glucan, 20 h) [%] | IL-23, TNFα, IL-6 and CCL20 responses to PTG (monocytes [2]; [5]) | cytokine response to β-glucan (monocytes [2]; [5]) | IL-23 responses to PTG and β-glucan (monocytes [2]; purified monocytes, 0.5 μg/ml IL-1ra, 20 h) | IL-1β and IL-23 responses generated by monocytes exposed to gliadin (monocytes [2]; summary statement) | effect on the IL-23/TH17 profile induced by PTG exposure (IFNγ-treated immDC) | CCL20 and IL-6 produced compared with PTG (PBMC [3]; [6]) | IL-23 and TNFα produced compared with PTG (PBMC [3]; [6]) | capacity to stimulate IL-23 production, lower than that of PTG or β-glucan (PBMC [3]; PBMC, 5 ng/ml IL-1β, 20 h, mean of 10 experiments) [fold] | IL-23 production by IL-1β alone relative to PTG and β-glucan (PBMC [3]; PBMC, physiologic concentrations of exogenous IL-1β) | IL-23 response of monocytes to exogenous IL-1β (monocytes [4]; 0.5, 5 or 50 ng/ml rhIL-1β, 20 h) | capacity to activate IL-23 secretion, reduced compared to PTG or β-glucan (monocytes [4]; purified monocytes, 20 h, means of 5 experiments) [fold] | dose dependence of IL-1β and IL-23 production (PBMC [3]; PBMC from CD patients, 25-500 μg/ml, 24 h) | IL-23 response in HLA-DQ2+ compared to HLA-DQ2 negative healthy individuals (PBMC [3]; PBMC, 24 h) | concentration at which detectable levels of IL-23 were achieved (PBMC [3]; dose response curves, PBMC from CD patients, 24 h) [µg/mL] | cell source of IL-23, IL-1β, CCL20, TNFα and IL-6 secretion (monocytes [4]; purified lymphocytes, monocytes, monocyte-derived DC, 100 μg/ml PTG, 24 h)
1 | IL-1ra: naturally occurring anti-inflammatory IL-1 receptor antagonist; recombinant human, purchased from R & D Systems | significantly inhibits | completely inhibited | markedly reduced | inhibits; also recorded: almost completely inhibited | ~60 | drastically inhibited | inhibited | significantly inhibited; also recorded: blocks | substantially inhibits | had no effect |  |  |  |  |  |  |  |  |  | 
2 | IL-1β: recombinant human IL-1β purchased from R & D Systems |  |  |  |  |  |  |  |  |  | had no effect | equivalent concentrations | reduced levels | ~10 | much lower levels | dose dependent manner | ~10 |  |  |  | 
3 | β-D-glucan [β-glucan, reference compound] |  |  |  |  |  |  |  |  |  |  |  |  |  |  |  |  | dose-dependent production | substantially more IL-23; also recorded: more pronounced effect | 500 | confined to monocytes

Reference: patent US20090311214A1, “COMPOSITIONS AND METHODS FOR THE INNATE IMMUNE RESPONSE PATHWAY” (UNIVERSITY OF MARYLAND, BALTIMORE, priority 2008, published 2009)
